Measurements taken from the NIST ThermoML archive (doi:10.1016/j.fluid.2012.05.002).
± gives the expanded uncertainty stated by the source.

Assay: osmotic coefficient (dimensionless); mn = molality of the nth substance listed, in mol/kg
Conditions: 298.1 K, 20 kPa, Liquid, isopiestic method

CCCC(=O)O [butanoic acid] + O
Conditions	osmotic coefficient
m1 = 0.2966	1.051 ± 0.0094
m1 = 0.3972	1.03 ± 0.012
m1 = 0.7027	0.9809 ± 0.0023
m1 = 0.9898	0.9364 ± 0.0052
m1 = 1.539	0.8612 ± 0.0079
m1 = 2.501	0.755 ± 0.011
m1 = 2.652	0.74 ± 0.011
m1 = 4.544	0.598 ± 0.016
m1 = 5.353	0.553 ± 0.018
m1 = 6.364	0.506 ± 0.019
m1 = 7.777	0.454 ± 0.023
m1 = 9.598	0.402 ± 0.023
m1 = 12	0.351 ± 0.026
m1 = 15.29	0.302 ± 0.027
m1 = 17.6	0.278 ± 0.028

O=C(O)CC(=O)O [propanedioic acid] + O
Conditions	osmotic coefficient
m1 = 0.1216	1.144 ± 0.0083
m1 = 0.3009	0.456 ± 0.022
m1 = 0.5079	0.268 ± 0.029
m1 = 0.6604	0.274 ± 0.028
m1 = 0.7994	0.314 ± 0.027
m1 = 1.01	0.354 ± 0.025
m1 = 1.08	0.362 ± 0.026
m1 = 1.631	0.373 ± 0.024
m1 = 2.392	0.401 ± 0.023
m1 = 3.127	0.436 ± 0.022
m1 = 4.097	0.455 ± 0.021
m1 = 5.12	0.469 ± 0.021
m1 = 6.369	0.498 ± 0.019
m1 = 9.545	0.525 ± 0.022

CCC(=O)O [propanoic acid] + O
Conditions	osmotic coefficient
m1 = 0.3425	1.054 ± 0.0037
m1 = 0.4819	1.036 ± 0.0046
m1 = 0.6261	1.018 ± 0.0035
m1 = 0.8086	0.9963 ± 0.0012
m1 = 1.054	0.9683 ± 0.0028
m1 = 1.294	0.942 ± 0.013
m1 = 1.796	0.892 ± 0.013
m1 = 2.261	0.851 ± 0.015
m1 = 2.918	0.7984 ± 0.0078
m1 = 4.125	0.718 ± 0.011
m1 = 5.45	0.647 ± 0.014
m1 = 7.948	0.549 ± 0.018
m1 = 8.132	0.542 ± 0.018
m1 = 10.51	0.478 ± 0.02
m1 = 12.4	0.438 ± 0.023

O=C(O)CC(O)C(=O)O (centres undefined) [hydroxybutanedioic acid] + O
Conditions	osmotic coefficient
m1 = 0.1223	1.343 ± 0.013
m1 = 0.2625	0.828 ± 0.0078
m1 = 0.3917	0.426 ± 0.024
m1 = 0.5398	0.351 ± 0.026
m1 = 0.8231	0.441 ± 0.022
m1 = 0.9977	0.506 ± 0.019
m1 = 1.245	0.528 ± 0.018
m1 = 1.848	0.531 ± 0.02
m1 = 2.634	0.54 ± 0.018
m1 = 3.207	0.554 ± 0.017
m1 = 3.996	0.566 ± 0.017
m1 = 5.166	0.584 ± 0.017
m1 = 6.325	0.613 ± 0.017
m1 = 7.352	0.626 ± 0.015

O=C(O)CC(O)(CC(=O)O)C(=O)O [citric acid] + O
Conditions	osmotic coefficient
m1 = 0.2947	1.058 ± 0.006
m1 = 0.3878	1.058 ± 0.0043
m1 = 0.6515	1.058 ± 0.0041
m1 = 0.8686	1.067 ± 0.0061
m1 = 1.039	1.073 ± 0.0037
m1 = 1.225	1.082 ± 0.004
m1 = 1.753	1.12 ± 0.01
m1 = 2.327	1.17 ± 0.014
m1 = 2.699	1.194 ± 0.0075
m1 = 3.133	1.23 ± 0.0089
m1 = 3.816	1.288 ± 0.011
m1 = 4.436	1.34 ± 0.014
m1 = 5.134	1.4 ± 0.016
m1 = 5.522	1.44 ± 0.017
m1 = 5.987	1.47 ± 0.02
m1 = 6.701	1.52 ± 0.02
m1 = 7.6	1.58 ± 0.022
m1 = 8.205	1.62 ± 0.026

CC(=O)O [acetic acid] + O
Conditions	osmotic coefficient
m1 = 0.3254	1.034 ± 0.0034
m1 = 0.4489	1.014 ± 0.003
m1 = 0.6191	0.991 ± 0.013
m1 = 0.7688	0.9736 ± 0.0014
m1 = 1.029	0.9465 ± 0.0043
m1 = 1.262	0.925 ± 0.0036
m1 = 1.638	0.8942 ± 0.0068
m1 = 2.236	0.852 ± 0.015
m1 = 2.588	0.8295 ± 0.0074
m1 = 3.693	0.768 ± 0.009
m1 = 4.687	0.72 ± 0.011
m1 = 6.292	0.652 ± 0.014
m1 = 9.635	0.535 ± 0.018
m1 = 14.92	0.375 ± 0.03

O=CO [formic acid] + O
Conditions	osmotic coefficient
m1 = 0.3334	1.047 ± 0.0031
m1 = 0.6596	1.078 ± 0.0039
m1 = 0.7817	1.089 ± 0.0046
m1 = 0.9947	1.109 ± 0.0045
m1 = 1.248	1.133 ± 0.011
m1 = 1.439	1.151 ± 0.01
m1 = 1.688	1.173 ± 0.0071
m1 = 2.27	1.226 ± 0.0098
m1 = 2.667	1.26 ± 0.01
m1 = 2.913	1.28 ± 0.017
m1 = 3.395	1.322 ± 0.013
m1 = 3.782	1.35 ± 0.014
m1 = 4.446	1.41 ± 0.021
m1 = 4.836	1.44 ± 0.018
m1 = 5.352	1.48 ± 0.018
m1 = 5.619	1.49 ± 0.019

O=C(O)C(O)C(O)C(=O)O (centres undefined) [2,3-dihydroxybutanedioic acid] + O
Conditions	osmotic coefficient
m1 = 0.3554	0.461 ± 0.023
m1 = 0.51	0.382 ± 0.024
m1 = 0.698	0.313 ± 0.027
m1 = 1.074	0.286 ± 0.028
m1 = 1.268	0.285 ± 0.028
m1 = 1.739	0.283 ± 0.028
m1 = 2.361	0.292 ± 0.03
m1 = 2.404	0.292 ± 0.027
m1 = 3.449	0.322 ± 0.028
m1 = 4.311	0.351 ± 0.025
m1 = 5.203	0.379 ± 0.024
m1 = 6.517	0.416 ± 0.023
m1 = 7.737	0.437 ± 0.022
